From patent US20230066011A1, “PYRROLOPYRIMIDINE DERIVATIVE, AND PHARMACEUTICAL COMPOSITION FOR PREVENTING OR TREATING PROTEIN KINASE-RELATED DISEASE COMPRISING SAME AS ACTIVE INGREDIENT” (VORONOI CO., LTD., priority 2019, published 2023)

What was measured:
Type in all cases: biochemical
human GST-CLK1 = molecular target: T1, human GST-CLK1 (Homo sapiens, UniProt P49759); experiment: GST-CLK1 enzyme inhibition, ADP-Glo kinase assay; conditions: ATP 10 μM, GST-CLK1 129-end
T1 construct: purified human GST-CLK1 (129-end, SignalChem) enzyme; purchased SignalChem
Outline: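 Human GST-CLK1 (129-end, 3 ng) reacted with substrate and 10 μM ATP for 1 h at 25° C in 40 mM Tris-HCl pH 7.4, 20 mM MgCl2, 0.5 mg/mL BSA, 50 μM DTT. ADP-Glo luminescence was normalised to solvent control; IC50 (nM) from 3 data sets.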

LRRK2 (G2019S) = LRRK2 (G2019S) (Homo sapiens, UniProt Q5S007, G2019S); experiment: LRRK2 G2019S enzyme inhibition, ADP-Glo kinase assay; parameters: purchased SignalChem L10-12GG; conditions: ATP 25 μM
Outline: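 Purified human LRRK2 G2019S (16 ng) with 25 μM ATP and 0.2 μg substrate, 2 h at 25° C. in Tris-HCl pH 7.4, MgCl2, BSA, DTT buffer; compounds at 12 final concentrations, 50 μM down to 0.000001024 μM. ADP-Glo luminescence versus solvent control gave IC50.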

LRRK2 = LRRK2 (Homo sapiens, UniProt Q5S007); experiment: LRRK2 enzyme inhibition, ADP-Glo kinase assay; parameters: purchased Invitrogen PR8604B; conditions: ATP 10 μM
Experimental: To evaluate an inhibitory activity of the compound according to the present invention against LRRK2, LRRK2 (G2019S), DYRK1, CLK1, and TTK kinases, experiments were performed as follows.
Each of the Example compounds was reacted with a purified human LRRK2 (Invitrogen #PR8604B) enzyme to evaluate an ability to inhibit an enzyme using a method as described below. A composition of 40 mM Tris-HCl (pH 7.4), 20 mM MgCl2, 0.5 mg/mL BSA, and 50 μM DTT was used as a reaction buffer, and all reactions of test substances were performed in the reaction buffer. Each of the compounds was diluted […] from a 10 mM DMSO stock using a serial dilution method, and enzyme activities were measured at final compound concentrations of 50, 10, 2, 0.4, 0.08, 0.016, 0.0032, 0.00064, 0.000128, 0.0000256, 0.00000512, and 0.000001024 μM. In the test, purified ATP (10 μM) and an enzyme substrate (0.2 μg) were reacted with a human LRRK2 (25 ng) enzyme at 25° C. for 2 hours, and the enzyme activities were determined using an in vitro ADP-Glo™ kinase assay (Promega). An enzyme-activity reaction solution, an ADP-Glo reaction solution, and an enzyme-ability detection solution were reacted at a ratio of 2:2:1 to measure a degree of inhibition of the enzyme activity with luminescence. The degree of inhibition of the enzyme activity according to the treatment concentration of each of the compounds was calculated based on the fluorescence of the enzyme activity of the solvent control which was not treated with the compound. In this case, the concentration of each of the compounds inhibiting 50% of the enzyme activity was determined to be an IC50 (nM) value, and calculated using Prism (Version 5.01; GraphPad) software.

human GST-DYRK1A = molecular target: T2, human GST-DYRK1A (Homo sapiens, UniProt Q13627); experiment: GST-DYRK1A enzyme inhibition, ADP-Glo kinase assay; conditions: ATP 10 μM, GST-DYRK1A full length, read-out: DYRK1 IC50
T2 construct: purified human GST-DYRK1A (full length, Thermo Scientifics) enzyme; purchased Thermo Scientifics
Outline: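 Full-length human GST-DYRK1A (10 ng) with 10 μM ATP and specific substrate in 40 mM Tris-HCl pH 7.4, 20 mM MgCl2, 0.5 mg/mL BSA, 50 μM DTT, 1 h at 25 °C. ADP formation read by ADP-Glo luminescence relative to solvent control; IC50 from three data sets.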

LRRK2, sequence (Q5S007 970-2527 limits assumed): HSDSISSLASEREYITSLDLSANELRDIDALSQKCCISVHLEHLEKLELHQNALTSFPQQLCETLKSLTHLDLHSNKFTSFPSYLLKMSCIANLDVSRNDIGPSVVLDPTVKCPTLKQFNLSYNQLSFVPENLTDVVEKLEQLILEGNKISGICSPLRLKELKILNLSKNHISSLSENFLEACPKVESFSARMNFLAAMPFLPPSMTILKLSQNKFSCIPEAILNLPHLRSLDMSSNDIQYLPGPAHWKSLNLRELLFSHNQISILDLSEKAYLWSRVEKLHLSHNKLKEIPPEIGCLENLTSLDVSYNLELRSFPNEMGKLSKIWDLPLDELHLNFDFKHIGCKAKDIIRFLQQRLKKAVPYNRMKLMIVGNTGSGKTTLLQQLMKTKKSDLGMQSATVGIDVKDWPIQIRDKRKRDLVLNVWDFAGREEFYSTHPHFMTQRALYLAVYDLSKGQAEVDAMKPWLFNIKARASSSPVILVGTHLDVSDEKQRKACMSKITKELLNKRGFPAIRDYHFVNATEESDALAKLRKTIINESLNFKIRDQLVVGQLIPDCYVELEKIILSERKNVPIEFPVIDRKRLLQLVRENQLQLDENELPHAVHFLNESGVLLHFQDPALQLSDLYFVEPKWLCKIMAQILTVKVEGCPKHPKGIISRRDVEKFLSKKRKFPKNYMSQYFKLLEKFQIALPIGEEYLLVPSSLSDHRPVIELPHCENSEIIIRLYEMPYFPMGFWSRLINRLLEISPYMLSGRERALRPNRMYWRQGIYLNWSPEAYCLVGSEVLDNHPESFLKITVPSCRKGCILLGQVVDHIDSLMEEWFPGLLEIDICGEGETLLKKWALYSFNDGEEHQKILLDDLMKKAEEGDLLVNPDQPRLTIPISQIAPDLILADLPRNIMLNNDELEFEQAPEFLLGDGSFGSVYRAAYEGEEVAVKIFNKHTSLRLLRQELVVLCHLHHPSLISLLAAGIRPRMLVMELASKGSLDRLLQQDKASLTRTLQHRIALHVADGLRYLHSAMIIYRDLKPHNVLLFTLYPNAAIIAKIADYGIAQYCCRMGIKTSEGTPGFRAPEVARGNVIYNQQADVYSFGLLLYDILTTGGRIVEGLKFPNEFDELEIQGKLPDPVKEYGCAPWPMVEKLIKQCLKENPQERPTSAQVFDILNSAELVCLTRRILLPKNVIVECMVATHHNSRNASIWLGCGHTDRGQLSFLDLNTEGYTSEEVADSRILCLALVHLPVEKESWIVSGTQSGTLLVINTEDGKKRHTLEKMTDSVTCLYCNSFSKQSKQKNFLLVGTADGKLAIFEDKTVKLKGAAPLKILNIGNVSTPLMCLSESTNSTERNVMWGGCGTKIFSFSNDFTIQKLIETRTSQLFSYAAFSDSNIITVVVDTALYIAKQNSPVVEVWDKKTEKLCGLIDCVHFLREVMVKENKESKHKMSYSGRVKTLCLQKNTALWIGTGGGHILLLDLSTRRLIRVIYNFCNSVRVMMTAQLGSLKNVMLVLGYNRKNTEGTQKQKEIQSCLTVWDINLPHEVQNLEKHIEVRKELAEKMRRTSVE
LRRK2 (G2019S), sequence (Q5S007 970-2527 G2019S limits assumed): as the sequence (Q5S007 970-2527 limits assumed) above, with G1050S counted along it
T1 sequence (P49759 129-484 limits assumed): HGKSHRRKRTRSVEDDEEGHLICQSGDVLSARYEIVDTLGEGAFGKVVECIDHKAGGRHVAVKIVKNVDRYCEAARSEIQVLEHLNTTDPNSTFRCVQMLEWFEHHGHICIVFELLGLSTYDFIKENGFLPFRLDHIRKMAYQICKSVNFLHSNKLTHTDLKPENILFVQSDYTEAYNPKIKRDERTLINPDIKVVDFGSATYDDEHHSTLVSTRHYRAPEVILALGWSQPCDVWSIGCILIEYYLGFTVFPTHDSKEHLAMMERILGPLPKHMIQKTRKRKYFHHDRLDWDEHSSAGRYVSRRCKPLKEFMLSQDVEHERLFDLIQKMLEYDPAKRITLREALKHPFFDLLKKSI

SMILES	IC50 (human GST-CLK1) [nM]	IC50 (LRRK2 (G2019S)) [nM]	IC50 (LRRK2) [nM]	IC50 (human GST-DYRK1A) [nM]
CCNc1nc(Nc2ccc(S(C)(=O)=O)cc2OC)nc2[nH]cc(C#N)c12 [Example 98, 4-(ethylamino)-2-((2-methoxy-4-(methylsulfonyl)phenyl)amino)-7H-pyrrolo[2,3-d]pyrimidine-5-carbonitrile]	301 to 1000	< 100	< 100	301 to 1000
CCCNc1nc(Nc2ccc(S(C)(=O)=O)cc2OC)nc2[nH]cc(C#N)c12 [Example 99, 2-((2-methoxy-4-(methylsulfonyl)phenyl)amino)-4-(propylamino)-7H-pyrrolo[2,3-d]pyrimidine-5-carbonitrile]	301 to 1000	101 to 300	< 100	301 to 1000
COc1cc(S(C)(=O)=O)ccc1Nc1nc(NC(C)C)c2c(C#N)c[nH]c2n1 [Example 101, 4-(isopropylamino)-2-((2-methoxy-4-(methylsulfonyl)phenyl)amino)-7H-pyrrolo[2,3-d]pyrimidine-5-carbonitrile]	301 to 1000	< 100	< 100	301 to 1000
COCCNc1nc(Nc2ccc(S(C)(=O)=O)cc2OC)nc2[nH]cc(C#N)c12 [Example 103, 2-((2-methoxy-4-(methylsulfonyl)phenyl)amino)-4-((2-methoxyethyl)amino)-7H-pyrrolo[2,3-d]pyrimidine-5-carbonitrile]	301 to 1000	< 100	< 100	301 to 1000
COc1cc(S(C)(=O)=O)ccc1Nc1nc(NC2CCC2)c2c(C#N)c[nH]c2n1 [Example 105, 4-(cyclobutylamino)-2-((2-methoxy-4-(methylsulfonyl)phenyl)amino)-7H-pyrrolo[2,3-d]pyrimidine-5-carbonitrile]	301 to 1000	< 100	< 100	301 to 1000
COc1cc(S(C)(=O)=O)ccc1Nc1nc(NC2CCCC2)c2c(C#N)c[nH]c2n1 [Example 106, 4-(cyclopentylamino)-2-((2-methoxy-4-(methylsulfonyl)phenyl)amino)-7H-pyrrolo[2,3-d]pyrimidine-5-carbonitrile]	301 to 1000	< 100	< 100	301 to 1000
COc1cc(S(C)(=O)=O)ccc1Nc1nc(NC2CCCCC2)c2c(C#N)c[nH]c2n1 [Example 107, 4-(cyclohexylamino)-2-((2-methoxy-4-(methylsulfonyl)phenyl)amino)-7H-pyrrolo[2,3-d]pyrimidine-5-carbonitrile]	301 to 1000	301 to 1000	301 to 1000	301 to 1000
N#Cc1c[nH]c2nc(Nc3ccc(C(=O)N4CCOCC4)c4c3OCCO4)nc(NC3CCC3)c12 [Example 125, 4-(cyclobutylamino)-2-((8-(morpholine-4-carbonyl)-2,3-dihydrobenzo[b][1,4]dioxin-5-yl)amino)-7H-pyrrolo[2,3-d]pyrimidine-5-carbonitrile]	101 to 300	< 100	< 100	301 to 1000
N#Cc1c[nH]c2nc(Nc3ccc(C(=O)N4CCOCC4)c4c3OCCO4)nc(NCC3CC3)c12 [Example 130, 4-((cyclopropylmethyl)amino)-2-((8-(morpholine-4-carbonyl)-2,3-dihydrobenzo[b][1,4]dioxin-5-yl)amino)-7H-pyrrolo[2,3-d]pyrimidine-5-carbonitrile]	301 to 1000	< 100	< 100	301 to 1000
CCCCNc1nc(Nc2ccc(C(=O)N3CCOCC3)c3c2OCCO3)nc2[nH]cc(C#N)c12 [Example 134, 4-(butylamino)-2-((8-(morpholine-4-carbonyl)-2,3-dihydrobenzo[b][1,4]dioxin-5-yl)amino)-7H-pyrrolo[2,3-d]pyrimidine-5-carbonitrile]	301 to 1000	< 100	< 100	301 to 1000
N#Cc1c[nH]c2nc(Nc3ccc(C(=O)N4CCOCC4)c4c3OCCO4)nc(NC3COC3)c12 [Example 135, 2-((8-(morpholine-4-carbonyl)-2,3-dihydrobenzo[b][1,4]dioxin-5-yl)amino)-4-(oxetan-3-ylamino)-7H-pyrrolo[2,3-d]pyrimdine-5-carbonitrile]	301 to 1000	301 to 1000	301 to 1000	301 to 1000

Continued, values first:

IC50 (human GST-CLK1) [nM]	IC50 (LRRK2 (G2019S)) [nM]	IC50 (LRRK2) [nM]	IC50 (human GST-DYRK1A) [nM]	SMILES
101 to 300	< 100	< 100	301 to 1000	COc1cc(S(C)(=O)=O)ccc1Nc1nc(NC2CC2)c2c(C#N)c[nH]c2n1 [Example 104, 4-(cyclopropylamino)-2-((2-methoxy-4-(methylsulfonyl)phenyl)amino)-7H-pyrrolo[2,3-d]pyrimidine-5-carbonitrile]
< 100	< 100	< 100	301 to 1000	CNc1nc(Nc2ccc(C(=O)N3CCOCC3)c3c2OCCO3)nc2[nH]cc(C#N)c12 [Example 118, 4-(methylamino)-2-((8-(morpholine-4-carbonyl)-2,3-dihydrobenzo[b][1,4]dioxin-5-yl)amino)-7H-pyrrolo[2,3-d]pyrimidine-5-carbonitrile]
< 100	< 100	< 100	301 to 1000	CCNc1nc(Nc2ccc(C(=O)N3CCOCC3)c3c2OCCO3)nc2[nH]cc(C#N)c12 [Example 119, 4-(ethylamino)-2-((8-(morpholine-4-carbonyl)-2,3-dihydrobenzo[b][1,4]dioxin-5-yl)amino)-7H-pyrrolo[2,3-d]pyrimidine-5-carbonitrile]
< 100	< 100	< 100	101 to 300	CCCNc1nc(Nc2ccc(C(=O)N3CCOCC3)c3c2OCCO3)nc2[nH]cc(C#N)c12 [Example 120, 2-((8-(morpholine-4-carbonyl)-2,3-dihydrobenzo[b][1,4]dioxin-5-yl)amino)-4-(propylamino)-7H-pyrrolo[2,3-d]pyrimidine-5-carbonitrile]
< 100	< 100	< 100	101 to 300	CC(C)Nc1nc(Nc2ccc(C(=O)N3CCOCC3)c3c2OCCO3)nc2[nH]cc(C#N)c12 [Example 122, 4-(isopropylamino)-2-((8-(morpholine-4-carbonyl)-2,3-dihydrobenzo[b][1,4]dioxin-5-yl)amino)-7H-pyrrolo[2,3-d]pyrimidine-5-carbonitrile]
< 100	< 100	< 100	101 to 300	COCCNc1nc(Nc2ccc(C(=O)N3CCOCC3)c3c2OCCO3)nc2[nH]cc(C#N)c12 [Example 123, 4-((2-methoxyethyl)amino)-2-((8-(morpholine-4-carbonyl)-2,3-dihydrobenzo[b][1,4]dioxin-5-yl)amino)-7H-pyrrolo[2,3-d]pyrimidine-5-carbonitrile]
101 to 300	< 100	< 100	101 to 300	N#Cc1c[nH]c2nc(Nc3ccc(C(=O)N4CCOCC4)c4c3OCCO4)nc(NC3CC3)c12 [Example 124, 4-(cyclopropylamino)-2-((8-(morpholine-4-carbonyl)-2,3-dihydrobenzo[b][1,4]dioxin-5-yl)amino)-7H-pyrrolo[2,3-d]pyrimidine-5-carbonitrile]
< 100	< 100	< 100	101 to 300	CNc1nc(Nc2ccc(C(=O)N3CCC(N4CCOCC4)CC3)c3c2OCCO3)nc2[nH]cc(C#N)c12 [Example 136, 4-(methylamino)-2-((8-(4-morpholinopiperidine-1-carbonyl)-2,3-dihydrobenzo[b][1,4]dioxin-5-yl)amino)-7H-pyrrolo[2,3-d]pyrimidine-5-carbonitrile]
